Among the test systems are Bacillus subtilis; Botrytis cinerea; Escherichia coli; Fusarium verticillioides; Proteus vulgaris; Pseudomonas aeruginosa; Saccharomyces cerevisiae; Salmonella typhimurium; Staphylococcus aureus; Trichosporon beigelii; Bacillus cereus; Vibrio cholerae; Edwardsiella tarda; Escherichia coli JM109.
What all share (assay): ≥ marks a high value that may be exact or a test limit, other limits are often not marked, values filed in µg/mL are converted to µM
For test [1], the system named is Aspergillus flavus KCTC 9471.
Test [2] deals with Aspergillus fumigatus KCTC 6145.
Test [3] has as its system Candida albicans KCTC 7270.
For test [4], the system named is Escherichia coli O157:H7 ATCC 43895.
The subject of test [5] is Listeria monocytogenes KCTC 3710.
Test [6] concerns Staphylococcus epidermidis.
The subject of test [7] is Candida albicans MTCC 227.
For test [8], the system named is Escherichia coli DH5alpha.
In test [9] the test system is Fusarium solani MTCC 10158.
Test [10] relates to Salmonella enterica subsp. enterica serovar Typhi.
For test [11], the system named is Staphylococcus aureus ATCC 43300.
In test [12] the test system is Xanthomonas axonopodis ITCC BD00029.
Test [13] relates to Xanthomonas oryzae ITCC BB00026.
Test [14] has as its system Aeromonas salmonicida RFAS1.
In test [15] the test system is Edwardsiella tarda FP4130.
The subject of test [16] is Streptococcus iniae FP5228.
Test [17] relates to Vibrio alginolyticus KCCM 2928.
In test [18] the test system is Vibrio harveyi ATCC 14126.
The subject of test [19] is Vibrio ordalii KCCM 41669.
The test system of test [20] is Vibrio campbellii KCCM 40684.
Test [21] deals with Vibrio vulnificus KCTC 2982.
Test [22] has as its system Staphylococcus aureus 5118.
In test [23] the test system is Staphylococcus aureus ATCC 9144.
The subject of test [24] is Staphylococcus aureus E4049.
Test [25] concerns Aspergillus niger CECT 2694.
The subject of test [26] is Erwinia amylovora PMV 6076.
For test [27], the system named is Fusarium oxysporum f. sp. lycopersici ATCC 201829.
In test [28] the test system is Penicillium expansum EPS 26.
For test [29], the system named is Pseudomonas syringae EPS 94.
Test [30] has as its system Rhizopus stolonifer CECT 2344.
The subject of test [31] is Xanthomonas vesicatoria 2133-2.

The structures appear in SMILES notation. Values after ≈ are worked out from the molar mass of the structure shown. Bounds are passed on as bounds.

Turning to `CC[C@H](C)[C@H](NC(=O)[C@H](CCCCN)NC(=O)[C@H](CO)NC(=O)[C@H](Cc1ccccc1)NC(=O)[C@H](CO)NC(=O)[C@H](CCCCN)NC(=O)[C@H](CCC(=O)O)NC(=O)[C@H](CC(C)C)NC(=O)[C@H](CCCN=C(N)N)NC(=O)[C@H](CCCCN)NC(=O)[C@H](Cc1ccccc1)NC(=O)[C@@H](NC(=O)[C@H](CCCCN)NC(=O)[C@H](CCCCN)NC(=O)[C@H](C)N)C(C)C)C(=O)N[C@@H](CCC(N)=O)C(=O)N[C@@H](CC(N)=O)C(=O)N[C@@H](CC(=O)O)C(=O)N[C@@H](CCCCN)C(N)=O` [AKKVFKRLEKSFSKIQNDK], the minimum inhibitory concentration (MIC) (as a rule, the lowest concentration found to suppress growth) was not below 50 µM in test [1]; not below 50 µM in [2]; 6.25 µM (≈ 14.3 µg/mL) against Bacillus subtilis; not below 50 µM in the test with Botrytis cinerea; 25 µM (≈ 57.3 µg/mL) in test [3]; 12.5 µM (≈ 28.7 µg/mL) in test [4]. The minimal inhibitory concentration (MIC) was 12.5 µM (≈ 28.7 µg/mL) with Escherichia coli; not below 50 µM in the test with Fusarium verticillioides; 12.5 µM (≈ 28.7 µg/mL) in test [5]; 12.5 µM (≈ 28.7 µg/mL) with Proteus vulgaris; 12.5 µM (≈ 28.7 µg/mL) against Pseudomonas aeruginosa; 25 µM (≈ 57.3 µg/mL) in the test on Saccharomyces cerevisiae. Further, the MIC was 12.5 µM (≈ 28.7 µg/mL) in the test with Salmonella typhimurium, more than 12.5 µM against Staphylococcus aureus, 12.5 µM (≈ 28.7 µg/mL) in test [6] and 12.5 µM (≈ 28.7 µg/mL) against Trichosporon beigelii.
As for `NCCCC[C@H](NC(=O)[C@H](CCCCN)NC(=O)[C@H](CS)NC(=O)[C@@H]1CSSC[C@H](N)C(=O)N[C@@H](CCCN=C(N)N)C(=O)N[C@@H](Cc2c[nH]c3ccccc23)C(=O)N[C@@H](CCCN=C(N)N)C(=O)N[C@@H](Cc2c[nH]c3ccccc23)C(=O)N[C@@H](CCCCN)C(=O)N1)C(=O)O` [CRWRWKCCKK], the MIC is 10 µM (≈ 13.9 µg/mL) in the test on Bacillus cereus; not below 40 µM in [7]; 20 µM (≈ 27.9 µg/mL) in test [8]; 20 µM (≈ 27.9 µg/mL) in test [9]; 10 µM (≈ 13.9 µg/mL) in [10]; 10 µM (≈ 13.9 µg/mL) in test [11]. In addition, the MIC against Vibrio cholerae was 20 µM (≈ 27.9 µg/mL); in [12], 5 µM (≈ 6.97 µg/mL); in [13], 10 µM (≈ 13.9 µg/mL).
As to `CC(C)C[C@H](NC(=O)[C@H](CCCN=C(N)N)NC(=O)CNC(=O)[C@H](Cc1ccccc1)NC(=O)[C@@H](N)Cc1ccccc1)C(=O)N[C@@H](CCCCN)C(=O)N[C@@H](C)C(=O)N[C@H](C(=O)N[C@@H](Cc1ccccc1)C(=O)N[C@@H](CCCN=C(N)N)C(=O)NCC(=O)N[C@@H](C)C(=O)N[C@@H](CCCN=C(N)N)C(=O)N[C@@H](CCC(N)=O)C(=O)NCC(=O)N[C@@H](Cc1c[nH]c2ccccc12)C(=O)N[C@@H](CCCCN)C(=O)N[C@@H](CCC(=O)O)C(=O)N[C@@H](Cc1cnc[nH]1)C(=O)N[C@@H](CCCN=C(N)N)C(=O)N[C@@H](Cc1ccc(O)cc1)C(=O)O)C(C)C` [FFGRLKAVFRGARQGWKEHRY], the MIC was determined as 7.8 µM (≈ 20.4 µg/mL) in [14]; 15.6 µM (≈ 40.7 µg/mL) in test [15]; 7.8 µM (≈ 20.4 µg/mL) in test [16]; 0.5 µM (≈ 1.31 µg/mL) in [17]; 0.5 µM (≈ 1.31 µg/mL) in test [18]; 15.6 µM (≈ 40.7 µg/mL) in [19].
Take `CC[C@H](C)[C@H](NC(=O)[C@H](CC(C)C)NC(=O)[C@H](CCCN=C(N)N)NC(=O)[C@H](Cc1cnc[nH]1)NC(=O)[C@@H](NC(=O)[C@@H](NC(=O)[C@H](CCCCN)NC(=O)CNC(=O)[C@@H](NC(=O)CNC(=O)[C@@H](NC(=O)[C@H](CC(C)C)NC(=O)CNC(=O)[C@H](CC(N)=O)NC(=O)[C@H](Cc1ccccc1)NC(=O)[C@@H](NC(=O)[C@H](Cc1cnc[nH]1)NC(=O)[C@H](Cc1cnc[nH]1)NC(=O)[C@H](Cc1ccccc1)NC(=O)[C@@H](N)Cc1ccccc1)[C@@H](C)CC)C(C)C)C(C)C)[C@@H](C)O)[C@@H](C)CC)C(=O)O` [FFHHIFNGLVGVGKTIHRLI]: the MIC with Edwardsiella tarda was determined as 11 µM (≈ 25.4 µg/mL); in the test on Escherichia coli JM109, 2.72 µM (≈ 6.28 µg/mL); in test [16], 1.9 µM (≈ 4.38 µg/mL); in test [17], 0.9 µM (≈ 2.08 µg/mL); in test [20], 0.9 µM (≈ 2.08 µg/mL); in [18] it was 0.9 µM (≈ 2.08 µg/mL). Further, the MIC in test [19] was not below 1000 µM; in test [21], 2.72 µM (≈ 6.28 µg/mL).
On to `CSCC[C@H](NC(=O)[C@@H](NC(=O)[C@H](Cc1ccccc1)NC(=O)[C@H](CC(C)C)NC(=O)[C@H](CC(C)C)NC(=O)[C@@H](NC(=O)[C@H](C)NC(=O)[C@@H](N)CC(C)C)[C@@H](C)O)[C@@H](C)O)C(=O)N[C@@H](CS)C(=O)N[C@@H](CC(C)C)C(=O)N[C@@H](CC(N)=O)C(=O)N[C@@H](Cc1ccccc1)C(=O)N[C@@H](CS)C(=O)NCC(=O)N[C@H](C(=O)N[C@@H](CC(C)C)C(=O)N[C@@H](C)C(=O)NCC(=O)N[C@@H](CC(=O)O)C(=O)N[C@@H](CC(=O)O)C(=O)O)C(C)C` [LATLLFTMCLNFCGVLAGDD], for which the MIC in [22] was 3.78 µM (≈ 8 µg/mL); in test [23] it was not below 125 µM; in [24], 15.6 µM (≈ 33 µg/mL).
Consider `CC[C@H](C)[C@H](NC(=O)[C@H](CCCCN)NC(=O)[C@H](CCCCN)NC(=O)[C@H](Cc1ccccc1)NC(=O)[C@H](CC(C)C)NC(=O)[C@H](CCCCN)NC(=O)[C@@H](N)Cc1c[nH]c2ccccc12)C(=O)N[C@@H](CC(C)C)C(=O)N[C@@H](CCCCN)C(=O)N[C@@H](Cc1ccc(O)cc1)C(=O)N[C@@H](CC(C)C)C(N)=O` [WKLFKKILKYL], for which the MIC in test [25] was 17.3 µM (≈ 25.6 µg/mL); in test [26] it was 3.16 µM (≈ 4.68 µg/mL); in test [27], 0.849 µM (≈ 1.25 µg/mL); in [28] it was 22.4 µM (≈ 33.1 µg/mL); in test [29], 3.16 µM (≈ 4.68 µg/mL); in test [30] it was not below 35.4 µM. In test [31], the MIC stood at 3.16 µM (≈ 4.68 µg/mL).

The values are drawn from DBAASP.
